{"source": "patent US5770570A", "about": "“Method of delivering a vasoactive intestinal polypeptide, an encapsulated vasoactive intestinal polypeptide, and a method of making the encapsulated vasoactive intestinal polypeptide” (priority 1995, dated 1998)", "key": {"PG/PC/CH liposomes": {"tested_on": "PG/PC/CH liposomes", "assay": "Binding of VIP by pre-formed lipid liposomes (PG/PC/CH)", "details": "for binding of radiolabeled VIP by liposomes, % of available peptide: liposomes 2.5-45.6 mM Pi, 0.42 nM peptide", "procedure": "(§1) Unilaminar phospholipid liposomes were formed using phosphatidylcholine (PC) and phosphatidylglycerol (PG) purified from egg yolk (Sigma). The fatty acid composition of the phospholipids determined by Sigma was: (PC, C16:0), (35%; C18:0, 12%; C18:1, 31%; C18:2, 14%); (PG, C16:0, 30%, C18:0, 13%; C18:1, 30%; C18:2, 16%). The unilamellar liposomes were prepared by reverse-phase evaporation as disclosed in Szoka, Jr., F. and Papahadjopoulos (1978) Proc. Natl. Acad. Sci. USA 75, 4194-4198), from a mixture of PG/PC/CH(cholesterol) (molar ratio 1:4:5) or PC/CH (1:1) dissolved in chloroform.\nPeptide was permitted to bind liposome surface in aqueous solution. In organic solvents as in Example I, the peptide will be expressed in as well as on the lipid membranes of liposomes.\nThe liposomes were the pelleted (12,000×g, 10 min; Beckman centrifuge MICROFUGE®). The supernatant was aspirated and the liposome-associatedradioactivity was measured at 70% efficiency (Beckman model 5500 gamma counter). There was minimal loss of the liposomes in the supernatant, because more than 90% of the inorganic phosphate present in the reaction mixture was recovered in the pellet.\nThe binding data was corrected for peptide adsorption by the reaction tubes determined in parallel incubations.\nDissociation and saturability data were analyzed by means of Kinetic and Enzfitter (Elsevier Biosoft).\nThe binding of the VIP to the liposome was determined as follows. Unilamellar lipid liposomes were prepared by reverse evaporation and assayed for binding of radiolabeled VIP, as described above. BSA was included in the assay diluent to saturate nonspecific polypeptide binding sites in the lipid liposomes and the polypropylene surface of the reaction tubes.\n(§2) Values are means±s.d. Probe-binding was with pre-formed liposomes (2.3 mM Pi) and 100 nM CF or 0.2 nM (tyr^10 -^125 I)VIP mixed with 100 nM unlabeled peptide. Encapsulation was by making liposomes from lipid solutions (2.6 mM Pi) containing 2.5 μM CF or 1.7 nM (Tyr^10 -^125 I)VIP mixed with 2.5 μM unlabeled VIP. Free probes were removed by three washes with 50 mM HEPES, pH 7.3, containing 0.5% BSA. CF values were determined by fluorimetry after solubilization of liposomes, and VIP values, by measurement of liposome-associated radioactivity.\nFIG. 5 illustrates the results of the competitive inhibition of binding of (Tyr^10-^125)VIP (0.26 nM) by the liposomes (2.4 mM Pi) by unlabeled VIP (10 nM-1 mM). Data are means±s.d expressed as % of available radiolabeled peptide. […]"}, "[1]": {"assay": "Release (leakage) of VIP from liposomes stored in buffer", "format": "physicochemical", "details": "stored in buffer at 4° C. for 14 days", "procedure": "The release of VIP from the liposomes was determined as follows.\nThe peptide release from liposomes containing (tyr^10 -^125 I)VIP, approximately 20,000 cpm, kept at 4° C. in 50 mM HEPES, pH 7.3, containing 0.02% […] was determined by centrifugation of aliquots of the suspension at 12,400×g for 15 minutes and measurement of radioactivity in the supernatants."}, "PC/CH liposomes": {"tested_on": "PC/CH liposomes", "assay": "Binding of VIP by electrically neutral liposomes (PC/CH)", "details": "VIP 100 nM", "procedure": "as §1\nThe binding of VIP (100 nM) by electrically neutral and negative liposomes prepared from PC/CH and PG/PC/CH, respectively, was compared. In each case, the levels of peptide binding increased within increasing concentration of the liposomes. The values of % VIP bound±s.d./μmol Pi were, PG/PC/CH liposomes, 26.2+3.4; PC/CH liposomes, 12.6±1.5. […] The inclusion of cholesterol, an agent that can be expected to decrease bilayer fluidity at the temperatures used in this study, as reported in Demel, R. A. and DeKruyff, B. (1976) Biochim. Biophys."}, "PC/PG liposomes": {"tested_on": "PC/PG liposomes", "assay": "Binding of VIP by liposomes without cholesterol (PC/PG)", "details": "PC/PG liposomes (no cholesterol)"}, "[2]": {"assay": "Release of liposome-bound VIP by solvent treatments (Table 2)", "format": "physicochemical", "details": "twice 1 ml for 10 min, 23° C.", "procedure": "Lipid liposomes (4 mM Pi) were permitted to bind (Tyr^10 -^125 I)VIP (1 nM), washed extensively to remove unbound radioactivity and then treated twice with 1 ml of the indicated solutions for 10 min (23° C.). Released radioactivity was determined in the pooled supernatant obtained by centrifugation. Values are % of initial liposome-bound radioactivity (76,300 CPM), corrected for peptide release in control incubations performed in 50 mM HEPES, pH 7.3 (4.2±3.4%)."}, "[3]": {"tested_on": "male golden Syrian hamsters", "assay": "Hypotensive effect (mean arterial blood pressure) in anesthetized hamsters", "format": "in vivo, hamster", "procedure": "The hamsters were first prepared by anesthetizing intravenously 6 mg of sodium pentobarbital per 100 g of body weight. A tracheostomy was then performed to facilitate spontaneous breathing. Supplemental anesthesia was administered intravenously as necessary at 2-4 mg/100 g body weight/hour. A femoral artery was cannulated for blood pressure monitoring. A femoral vein was cannulated for drug and florescent tracer administration.\n(§3) The animals were kept on a heated pad throughout the duration of the experiment. Arterial blood pressure was recorded continuously using a pressure transducer and a strip-chart recorder (Model 7702B, Hewlett-Packard). The microcirculation of the hamster check pouch was visualized using intravital microscopy and clearance of fluorescein isothiocyanic-dextran (M.W.=70 RD; Sigma) from postcapillary venules and determined as described in W. G. Mayhan and I. Rubinstein, J. Appl. Physiol., 75, pp. 27-32 (1993).\nIn each hamster, 1 ml aliquots of increasing concentrations of VIP dissolved in 0.15M sodium chloride or encapsulated in liposomes (1 nmol VIP/0.12 μmol phospholipids) were infused intravenously for 7 minutes.\nMean arterial blood pressure was recorded before, during, and for 60 minutes after administration of each concentration of the peptide.\n(§4) The number of leaky sites in check pouch microcirculation was determined every minute throughout the duration of the experiments as disclosed in W. G. Mayhan, Supra. The data is expressed as means±SEM. Students t-test for unpaired observations was used to compare responses to vasoactive intestinal peptide. A p value<0.05 was considered to be significant.\nThe effect on blood pressure was determined by measuring the magnitude of reduction in mean arterial blood pressure (MAP) as a function of time following infusion of VIP dissolved in saline or encapsulated in liposomes."}, "[4]": {"assay": "Encapsulation of probes by making liposomes in their presence (Table 1)", "format": "physicochemical", "details": "liposomes made from lipid solutions 2.6 mM Pi containing 2.5 μM probe", "procedure": "as §2"}, "[5]": {"tested_on": "hamster check pouch microcirculation", "assay": "Untoward effects and leaky sites in check pouch microcirculation", "format": "in vivo", "details": "i.v. infusion in hamsters", "procedure": "as §3, §4"}, "[6]": {"target": "(tyr^10 -^125 I)VIP (radioiodinated synthetic vasoactive intestinal polypeptide)"}, "[7]": {"details": "pre-formed liposomes 2.3 mM Pi, 100 nM CF or 0.2 nM tracer with 100 nM unlabeled VIP"}}, "note": "pIC50: −log10 of the molar value. Values joined by “and” are separate entries in the source; they are usually repeats but may differ in a detail not shown here. Identical values can stand only once. Ends that are not written are not given here. * marks the point of attachment. 125I = [125I]*", "data": [{"substance": "(tyr^10 -^125 I)VIP: VIP radioiodinated at tyrosine 10, used as tracer (HSDAVFTDNY(125I)TRLLRKQMAVKKYLNSILN-NH2)", "values": [{"measurement": "binding of radiolabeled VIP by liposomes, % of available peptide", "setting": "PG/PC/CH liposomes", "value": "up to 56.6%"}, {"measurement": "binding of radiolabeled VIP by liposomes, % of available peptide", "setting": "PG/PC/CH liposomes; listed as radiolabeled VIP", "value": "up to 60%"}, {"measurement": "leakage of (tyr10-125I)VIP from the liposomes", "setting": "[1]", "value": "< 2 % of available radioactivity"}]}, {"substance": "HSDAVFTDNYTRLLRKQMAVKKYLNSILN-NH2 (not fully specified (residue 10); printed as HSDAVFTDNYTRLLRKQMAVKKYLNSILN-NH2) [VIP, synthetic 28-amino acid neuropeptide; conventional VIP solution used as comparator]", "values": [{"measurement": "apparent binding capacity at saturating VIP concentrations", "setting": "PG/PC/CH liposomes", "value": "1 mol VIP/12.5 mol phospholipid"}, {"measurement": "pIC50", "setting": "PG/PC/CH liposomes; 0.26 nM tracer, liposomes 2.4 mM Pi, read-out: IC50, competitive inhibition of partitioning of (Tyr10-125I)VIP into liposomes", "value": 3.25}, {"measurement": "% VIP bound/μmol Pi", "setting": "PG/PC/CH liposomes; VIP 100 nM, PG/PC/CH liposomes", "value": "26.2 ± 3.4% and 26.2%"}, {"measurement": "partition constant derived from the binding isotherm", "setting": "PG/PC/CH liposomes; nominal value, neutral pH", "value": 1400, "unit": "M⁻¹"}, {"measurement": "Binding", "setting": "PG/PC/CH liposomes; [7]", "value": "20.5 ± 1.0", "unit": "nM"}, {"measurement": "% VIP bound/μmol Pi", "setting": "PC/CH liposomes", "value": "12.6±1.5", "unit": "%"}, {"measurement": "% VIP bound/μmole Pi", "setting": "PC/PG liposomes", "value": 24.9, "unit": "%"}, {"measurement": "% VIP released", "setting": "[2]; 1 mM HCl", "value": "3.0 ± 3.5", "unit": "%"}, {"measurement": "% VIP released", "setting": "[2]; 1 mM NaOH", "value": "15.9 ± 4.0", "unit": "%"}, {"measurement": "% VIP released", "setting": "[2]; 25 mM EDTA", "value": "8.1 ± 10.0", "unit": "%"}, {"measurement": "% VIP released", "setting": "[2]; 1% SDS", "value": "81.1 ± 9.6", "unit": "%"}, {"measurement": "% VIP released", "setting": "[2]; 1 M NaCl", "value": "2.7 ± 3.0", "unit": "%"}, {"measurement": "decrease in MAP", "setting": "[3]; 1 nmole per hamster", "value": "weak and transient decrease in MAP"}, {"measurement": "time at which a significant decrease in MAP was observed", "setting": "[3]; 1 nmole per hamster, i.v. infusion 7 minutes", "value": 5, "unit": "min"}, {"measurement": "MAP values for treated animals (FIG. 2 legend, apparently baseline)", "setting": "[3]; 1.0 nmole, 7 minutes i.v. infusion, n=5", "value": 93.0, "unit": "mm Hg"}, {"measurement": "return of arterial blood pressure to pre-infusion baseline", "setting": "[3]; 1 nmole, FIG. 2", "value": 9, "unit": "min"}, {"measurement": "reversibility of the hypotensive effect", "setting": "[3]; hamster, in vivo", "value": "fully reversible"}, {"measurement": "Encapsulation", "setting": "[4]", "value": "37.5 ± 5.0", "unit": "nM"}, {"measurement": "untoward effects during infusion", "setting": "[5]", "value": "did not display detectable untoward effects"}]}, {"substance": "carboxyfluorescein [CF]", "values": [{"measurement": "Binding", "setting": "PG/PC/CH liposomes; [7]", "value": "0.01 ± 0.001", "unit": "nM"}, {"measurement": "Binding, nM", "setting": "PG/PC/CH liposomes; pre-formed liposomes 2.3 mM Pi, 100 nM CF or 0.2 nM tracer with 100 nM unlabeled VIP, listed as carboxyfluorescein", "value": "very small amounts"}, {"measurement": "Encapsulation", "setting": "[4]", "value": "82.5 ± 7.5", "unit": "nM"}]}, {"substance": "trypsin from bovine pancreas (Sigma) (from UniProt P00760) (enzyme)", "values": [{"measurement": "peptide hydrolysis (trichloroacetic acid-soluble radioactivity of (tyr^10 -^125 I)VIP)", "setting": "[6]", "value": 80, "unit": "% digested"}]}]}
